According to patent publication US12264142B2, “Heterocyclic compounds” (FLORATEK PHARMA SA, priority 2019, dated 2025):
Entries after “also recorded” stand apart in the source; their conditions may differ.

What was measured:
aging-related pathways = experiment: Pathway transcriptional profile score analysis; assay type: in vivo, C. elegans
Excerpt: In the second approach, the transcriptomic profile of worms treated with SND303 compound was compared with published transcriptomes in which specific aging-related pathways have been manipulated. In contrast with the first approach, this blindly scores how the data fits with published transcriptomic signatures of aging.
Frequently cited and relevant studies analyzing the transcriptomic signatures of aging-related pathways in C. elegans were selected for this analysis. […] To generate a transcriptional profile score, the log fold change for each key gene in each pair of comparison (e.g. SND303 vs. negative control) is multiplied by a direction-specific factor and assigned a positive or negative value based on whether the change is in the same direction as reported in the literature. All the gene scores for a given pathway are summed up to produce one aggregated score per pathway for each pair of comparison.

KEGG pathways = experiment: KEGG pathway mapping of differentially-expressed genes; assay type: in vivo, C. elegans
Excerpt: To determine which among recognized aging-related pathways were most likely modulated by treatment with the SND303 compound, and to estimate their relative contributions, two approaches were undertaken. In one approach, the genes differentially expressed after treatment were mapped to pathways in the KEGG database, a curated knowledgebase of biological pathways. This placed the transcriptomic data within the context of well-characterized biological pathways, particularly several related to longevity.
Several of these genes matched to the canonical longevity pathways as curated in KEGG (FIG. 5). […] At Day 10, however, many more pathways were represented among differentially-expressed genes and each individual pathway was more richly populated with differentially-expressed genes. The most prominent increase was in the expression of genes involved in Oxidative Phosphorylation, possibly indicating maintenance of mitochondrial function. In addition, several components of the canonical Longevity Regulating Pathway are represented. With closer examination of these the differential expression of the gene encoding Target of Rapamycin (TOR) is notable. When the TOR pathways itself was expanded, several more differentially-expressed genes were represented that were not explicitly indicated in the Longevity Regulating Pathway. Applying this process with the other pathways and modules linked to the Longevity Regulating Pathway, a coherent hypothetical pathway of action emerges.

[1] = system: N2 wild type strain of worms; experiment: C. elegans life span (survival) assay, manual scoring (SND301); assay type: in vivo
Experimental: The survival assay was conducted in the presence of 50 μM SND301 with measurements of live, dead, and censored worms at time points every 2-3 days from the start of adulthood.
Thioflavin T was used in the assay as a positive control [Gamir-Morralla A et al, 2019, “Effects of Thioflavin T and GSK-3 Inhibition on Lifespan and Motility in a Caenorhabditis elegans Model of Tauopathy”, J Alzheimers Dis Rep., 3(1): 47-57]. Vehicle 25% and 1% DMSO were used as controls and represent the vehicles in which compounds and bacteria or bacteria alone respectively were resuspended. The final DMSO concentration in the agar plates was 0.5% and 0.02% respectively.
5 mM DMSO stock solutions for each compound were prepared in high-grade DMSO. Stocks were protected from light and stored in glass vials at 21° C. in a temperature-controlled room (to avoid freeze/thaw of DMSO). A fresh stock was prepared at the start of each experiment and stored for <1 week.
The lifespan assay was designed and performed according to published and validated methods with modifications for chemical treatment [Amrit F R G et al, 2014, “The C. elegans lifespan assay toolkit”, METHODS 68, 465-475; Leukanic, et. Al, “Manual Lifespan Assay Standard Operating Procedure”, Caenorhabditis Intervention Testing Program, https://figshare.com/articles/7_CITP_SOP_Manual_Lifespan_Assay/9738197/1]. Plates were seeded with compound dissolved in 25% DMSO and bacteria. The DMSO diffused through the agar to reach a final concentration of 0.5%. Synchronized day 1 adult worms were transferred to seeded plates containing compound and allowed to lay eggs for 2 hours (Day 0, “hatchoff”). The young adults were then removed, and the eggs were incubated at 20° C. until they had reached the young adult stage (day 3). 200 young adult worms per treatment were transferred to 8 fresh seeded 35 mm dishes with compound and 50 μM 5-Fluorodeoxyuridine to suppress progeny. […] Worms that were missing, stuck to the dish, burrowed, injured, or exploded were scored as censored and removed from the plate. To maintain chemical exposure at the experimental concentrations, worms were transferred every other scoring day to new seeded plates with compound.

C. elegans = conditions: Ryu et al 2016; cited from earlier work
[2] = Day 10, against negative control
[3] = end of the study, SND301 and Urolithin A 50 μM

CC(C)NC(=O)Oc1ccc2c(c1)oc(=O)c1cc(OC(=O)NC(C)C)ccc12 [SND303]
Transcriptional profile score, overall (aging-related pathways; Day 3, against negative control): little deviation from the control
Transcriptional profile score, Oxidative stress response (aging-related pathways; [2]): strong negative score
Transcriptional profile score, overall (aging-related pathways; [2]): greatest overall profile contrast with control
cel00980 Metabolism of xenobiotics by cytochrome P450: differentially-expressed genes (KEGG pathways; Day 3): gst-4; Glutathione S-transferase 4; also recorded: sodh-1; Alcohol dehydrogenase 1; also recorded: gst-5; Probable glutathione S-transferase 5
cel04212 Longevity regulating pathway: differentially-expressed genes (KEGG pathways; Day 3): gst-4; Glutathione S-transferase 4; also recorded: gst-5; Probable glutathione S-transferase 5; also recorded: ctl-2; Peroxisomal catalase 1
cel00190 Oxidative phosphorylation: differentially-expressed genes (KEGG pathways; Day 10): 15 genes
cel03040 Spliceosome: differentially-expressed genes (KEGG pathways; Day 10): 10 genes
cel03050 Proteasome: differentially-expressed genes (KEGG pathways; Day 10): 11 genes
cel04010 MARK signaling pathway: differentially-expressed genes (KEGG pathways; Day 10): mtk-1; Protein kinase domain-containing protein; also recorded: fln-2; FiLamiN (actin binding protein) homolog; also recorded: nsy-1; Mitogen-activated protein; also recorded: mnk-1; MAP kinase-interacting; also recorded: pxf-1; Rap guanine nucleotide exchange factor; also recorded: ced-2; Cell death abnormality protein 2; also recorded: daf-2; Insulin-like receptor subunit beta
cel04120 Ubiquitin mediated proteolysis: differentially-expressed genes (KEGG pathways; Day 10): 6 genes
cel04140 Autophagy: differentially-expressed genes (KEGG pathways; Day 10): let-363; Target of rapamycin homolog; also recorded: daf-15; Raptor_N domain-containing protein; also recorded: pek-1; Eukaryotic translation initiation; also recorded: atg-2; Autophagy-related protein 2; also recorded: cpl-1; Cathepsin L-like; also recorded: epg-7; ATG11 domain-containing protein; also recorded: ragc-1; RAs-related GTP binding; also recorded: unc-51; Serine/threonine-protein kinase unc-51
cel04141 Protein processing in endoplasmic reticulum: differentially-expressed genes (KEGG pathways; Day 10): pdi-2; Protein disulfide-isomerase 2; also recorded: cup-2; Derlin-1; also recorded: skr-2; SKp1 Related (ubiquitin ligase; also recorded: pek-1; Eukaryotic translation initiation; also recorded: uggt-1; UDP-Glucose Glycoprotein; also recorded: nsy-1; Mitogen-activated protein kinase; also recorded: rbx-1; RING-box protein 1; also recorded: Protein transport protein Sec61 subunit gamma
cel04150 mTOR signaling pathway: differentially-expressed genes (KEGG pathways; Day 10): let-363; Target of rapamycin homolog; also recorded: daf-15; Raptor_N domain-containing protein; also recorded: rict-1; RICTOR_V domain-containing protein; also recorded: T08A11.1; DEP domain-containing protein; also recorded: ragc-1; RAs-related GTP binding; also recorded: Y32H12A.8; WD_Repeats domain-containing; also recorded: daf-2; Insulin-like receptor subunit beta; also recorded: unc-51; Serine/threonine-protein kinase unc-51
cel04212 Longevity regulating pathway-worm: differentially-expressed genes (KEGG pathways; Day 10): let-363; Target of rapamycin homolog; also recorded: sod-2; Superoxide dismutase [Mn] 1, mitochondrial; also recorded: gst-7; Probable glutathione S-transferase 7; also recorded: fat-6; Delta(9)-fatty-acid desaturase fat-6; also recorded: daf-2; insulin-like receptor subunit beta; also recorded: unc-51; Serine/threonine-protein kinase unc-51
cel04361 Axon regeneration: differentially-expressed genes (KEGG pathways; Day 10): 7 genes

O=c1oc2cc(O)ccc2c2ccc(O)cc12 [Urolithin A, reference compound]
Death events ([1]; Table 1A, at a certain point during the study, N2, SND301 and Urolithin A 50 μM): 47
% Complete ([1]; Table 1A, deaths attributed to aging from total worm population, at a certain point during the study, N2): 25.7%
Death events ([1]; Table 1B, end of the study, SND301 and Urolithin A 50 μM): 178
Maximum life span [1, 3]: 35 days
Median lifespan [1, 3]: 21 days
Effect on lifespan (C. elegans): extended lifespan
